Assay results: patent US12054494B2, “Compound with anticancer activity” (KYOWA KIRIN CO., LTD., priority 2018, dated 2024)
Structures can show the parent of a compound that is named as a salt.

Tests used:
[1] = system: MYC mRNA expression in SU-DHL-4 cells; assay: Suppressive effect on MYC mRNA expression (qRT-PCR); format: cell-based; settings: test compound 100 nmol/L, 6 hours
Protocol: Suppressive Effect on MYC mRNA Expression
SU-DHL-4 cells were cultured at 37° C. using a carbon dioxide gas incubator (95% air, 5% CO2) in RPMI1640 medium in which FBS in an amount to give a final concentration of 10 vol % and PS in an amount to give a final concentration of 1 vol % were added. The cells were passaged twice a week at a volume of 20-40 mL so as to maintain a cell concentration of 1×10^6 cells/mL or less.
The cultured SU-DHL-4 cells were seeded at 6×10^5 cells/well in a transparent 6-well plate (Code No. 140675, Thermo Fisher Scientific). After seeding, the cells were precultured at 37° C. in a carbon dioxide gas incubator for 18 to 25 hours. Next, a 0.1 mmol/L DMSO solution of the test compound was prepared, diluted so that the concentration will be 200 times the final concentration in the RPMI1640 medium containing the above FBS and PS, and 1/200 volume of the diluted solution was added to each well. At this time, the final concentration of DMSO was adjusted to be 0.1 vol %. After adding the test compound, the cells were cultured at 37° C. in a carbon dioxide gas incubator for 6 hours.
Then, the cells were collected by centrifugation and used for extraction of mRNA. mRNA extraction from cells was performed using Maxwell® 16 LEV simplyRNA Purification Kits (Code No. AS1270, Promega). The mRNA recovery protocol was performed according to the manufacturer's recommended protocol attached to the kit.
0.001 mg of the recovered mRNA was converted to cDNA by SuperScript IV VILO Master Mix with ezDNase Enzyme (Code No. 11766050, Thermo Fisher Scientific). The cDNA conversion was performed, according to the manufacturer's recommended protocol attached to the kit, in 0.020 mL of the reaction solution, and GeneAmp® PCR System 9700 (Applied Biosystems) was used. The cDNA-converted sample was diluted 10-fold by adding 0.180 mL of RNase Free Water (Code No. 10977-023, Thermo Fisher Scientific) and used for quantitative real-time polymerase chain reaction (qRT-PCR). For the calibration curve of qRT-PCR, 0.08 mL of RNase Free Water was added to a cDNA sample using DMSO as a test compound for 5-fold dilution. Further, two 5-fold dilutions were prepared stepwise, and these three samples were used as the calibration curve samples.
The following reagents were used for qRT-PCR: TaqMan Gene Expression Assays, Inventoried (Primer probe: Code No. 4331182, Thermo Fisher Scientific, Assay ID: (i) MYC: Hs00153408_m1, (ii) ACTB: Hs01060665_g1, (iii) GAPDH: Hs04420697_g1, (iv) HPRT1: Hs02800695_m1); 2X TaqManR Fast Universal PCR Master Mix, no AmpEraseR UNG (Master Mix: Code No. 4367846, Thermo Fisher Scientific).
Primer probe (0.001 mL), Master Mix (0.010 mL), water (0.004 mL) and the diluted cDNA sample (0.005 mL) were mixed, and qRT-PCR analysis was performed. For qRT-PCR analysis, QuantStudio 7 Flex (Thermo Fisher Scientific) or 7500 Fast Real-Time PCR (Applied Biosystems) was used to measure in Fast mode and analyze. The expression level of the MYC gene was determined by quantifying ACTB, GAPDH, and HPRT1 as housekeeping genes and correcting by the following formula to calculate the suppression rate of (%) of MYC mRNA expression when the test compound was allowed to act at a concentration of 100 nmol/L. Corrected MYC expression=A/B • A: MYC expression level • B: Geometric mean of expression levels of ACTB, GAPDH and HPRT1
Using the corrected values, the suppression rate of MYC expression for the wells to which […] was calculated by the following formula. Suppression rate of MYC expression (%)=100−C/D×100 • C: Corrected MYC expression level in a well containing test compound • D: Corrected MYC expression level in a well to which test compound was not added

SU-DHL-4 cells = assay: Inhibitory effect on cell viability (Cell Counting Kit-8); format: cell-based; settings: Homo sapiens, 72 hours culture with test compound, concentration showing 90% inhibition rate of cell viability
Method in brief: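 IC90 corresponds to 90% loss of viability, measured as CCK-8 absorbance at 450 nm (2-3 h colour development). Compounds in 9 dilutions (0.1% DMSO) were applied for 72 h at 37° C to SU-DHL-4 lymphoma cells seeded at 2000/well in RPMI1640/10% FBS after 18-25 h preculture.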

Row | SMILES | Suppression rate of MYC mRNA expression [1] [%] | IC90 (SU-DHL-4 cells) [nM]
1 | CCC(=O)N1c2ccccc2[C@H](Nc2ccc(NC(=O)C#CCNC(=O)C3CCC(N[C@@H]4C[C@H](C)N(C(=O)CC)c5ccccc54)CC3)cc2)C[C@@H]1C (relative stereo) [Compound 8g, (1R,4r)-4-(((2S*,4R*)-2-Methyl-1-propionyl-1,2,3,4-tetrahydroquinolin-4-yl)amino)-N-(4-((4-(((2S,4R)-2-methyl-1-propionyl-1,2,3,4-tetrahydroquinolin-4-yl)amino)phenyl)amino)-4-oxobut-2-yn-1-yl)cyclohexane-1-carboxamide] | 96.6 | –
2 | Cc1sc2c(c1C)C(c1ccc(Cl)cc1)=N[C@@H](CC(=O)NCCOCCOCCOCCOCCOCCOCCOCCNC(=O)C[C@@H]1N=C(c3ccc(Cl)cc3)c3c(sc(C)c3C)-n3c(C)nnc31)c1nnc(C)n1-2 [compound 2, reference compound] | 57.7 | –
3 | CCC(=O)N1c2ccccc2[C@H](NCCCCC(=O)NCc2cn(-c3ccc(N[C@@H]4C[C@H](C)N(C(=O)CC)c5ccccc54)cc3)nn2)C[C@@H]1C (relative stereo) [Compound 12f, 5-(((2S*,4R*)-2-Methyl-1-propionyl-1,2,3,4-tetrahydroquinolin-4-yl)amino)-N-((1-(4-(((2S,4R)-2-methyl-1-propionyl-1,2,3,4-tetrahydroquinolin-4-yl)amino)phenyl)-1H-1,2,3-triazol-4-yl)methyl)pentane amide] | 97.9 | –
4 | CCC(=O)N1c2ccccc2[C@H](Nc2ccc(NC(=O)CCCC(=O)NC3CCN(Cc4cc(O)cc(-c5c(C)noc5C)c4)CC3)cc2)C[C@@H]1C [Compound 12c, N^1-(1-(3-(3,5-Dimethylisoxazol-4-yl)-5-hydroxybenzyl)piperidinyl)-N^5-(4-(((2S,4R)-2-methyl-1-propionyl-1,2,3,4-tetrahydroquinolin-4-yl)amino)phenyl)glutaramide] | 97.8 | –
5 | CCC(=O)N1c2ccccc2[C@H](Nc2ccc(C(=O)NCCCNC(=O)c3ccc(C4=N[C@@H](CC(=O)OC5CCC(O)CC5)c5nnc(C)n5-c5sc(C)c(C)c54)cc3)cc2)C[C@@H]1C (stereo partly drawn) [Compound 13d, 4-Hydroxycyclohexyl 2-((S)-2,3,9-trimethyl-4-(4-((3-(4-(((2S,4R)-2-methyl-1-propionyl-1,2,3,4-tetrahydroquinolin-4-yl)amino)benzamide)propyl)carbamoyl)phenyl)-6H-thieno[3,2-f][1,2,4]triazolo[4,3-a][1,4]diazepin-6-yl)acetate] | 97.2 | –
6 | CCC(=O)N1c2ccccc2[C@H](Nc2ccc(Cn3cc(C(=O)Nc4ccc(N[C@@H]5C[C@H](C)N(C(=O)CC)c6ccccc65)cc4)nn3)cc2)C[C@@H]1C [Compound 5j, 1-(4-(((2S,4R)-2-Methyl-1-propionyl-1,2,3,4-tetrahydroquinolin-4-yl)amino)benzyl)-N-(4-(((2S,4R)-2-methyl-1-propionyl-1,2,3,4-tetrahydroquinolin-4-yl)amino)phenyl)-1H-1,2,3-triazolee-4-carboxamide] | 96.8 | –
7 | CCC(=O)N1c2ccccc2[C@H](Nc2ccc(C(=O)NCCNS(=O)(=O)c3ccc(N[C@@H]4C[C@H](C)N(C(=O)CC)c5ccccc54)cc3)cc2)C[C@@H]1C [Compound 4d, 4-{[(2S,4R)-2-Methyl-1-propionyl-1,2,3,4-tetrahydroquinolin-4-yl]amino}-N-{2-[(4-{[(2S,4R)-2-methyl-1-propionyl-1,2,3,4-tetrahydroquinolin-4-yl]amino}phenyl)sulfonamide]ethyl}benzamide] | 98.3 | –
8 | CCC(=O)N1c2ccccc2[C@H](Nc2ccc(CNCC(=O)Nc3ccc(N[C@@H]4C[C@H](C)N(C(=O)CC)c5ccccc54)cc3)cc2)C[C@@H]1C [Compound 5i, 2-((4-(((2S,4R)-2-Methyl-1-propionyl-1,2,3,4-tetrahydroquinolin-4-yl)amino)benzyl)amino)-N-(4-(((2S,4R)-2-methyl-1-propionyl-1,2,3,4-tetrahydroquinolin-4-yl)amino)phenyl)acetamide hydrochloride] | – | 4.49
9 | CCC(=O)N1c2ccccc2[C@H](Nc2ccc(NC(=O)C#CCNC(=O)c3ccc(C4=NCc5nnc(C)n5-c5sc(C)c(C)c54)cc3)cc2)C[C@@H]1C [Compound 14i, N-(4-((4-(((2S,4R)-2-Methyl-1-propionyl-1,2,3,4-tetrahydroquinolin-4-yl)amino)phenyl)amino)-4-oxobut-2-yn-1-yl)-4-(2,3,9-trimethyl-6H-thieno[3,2-f][1,2,4]triazolo[4,3-a][1,4]diazepin-4-yl)benzamide] | – | 0.03
10 | CCC(=O)N1c2ccccc2[C@H](Nc2ccc(NC(=O)NCCNC(=O)c3ccc(N[C@@H]4C[C@H](C)N(C(=O)CC)c5ccccc54)cc3)cc2)C[C@@H]1C (relative stereo) [Compound 6l, 4-(((2S,4R)-2-Methyl-1-propionyl-1,2,3,4-tetrahydroquinolin-4-yl)amino)-N-(2-(3-(4-(((2S*,4R*)-2-methyl-1-propionyl-1,2,3,4-tetrahydroquinolin-4-yl)amino)phenyl)ureido)ethyl)benzamide] | – | 0.35
11 | CCC(=O)N1c2ccccc2[C@H](Nc2ccc(OCCNC(=O)c3ccc(N[C@@H]4C[C@H](C)N(C(=O)CC)c5ccccc54)cc3)cc2)C[C@@H]1C [Compound 5n, 4-(((2S,4R)-2-Methyl-1-propionyl-1,2,3,4-tetrahydroquinolin-4-yl)amino)-N-(2-(4-(((2S,4R)-2-methyl-1-propionyl-1,2,3,4-tetrahydroquinolin-4-yl)amino)phenoxy)ethyl)benzamide] | – | 8.83
12 | CCC(=O)N1c2ccccc2[C@H](Nc2ccc(NC(=O)CC[S+]([O-])c3ccc(N[C@@H]4C[C@H](C)N(C(=O)CC)c5ccccc54)cc3)cc2)C[C@@H]1C (stereo partly drawn) [Compound 5m, N-(4-(((2S,4R)-2-Methyl-1-propionyl-1,2,3,4-tetrahydroquinolin-4-yl)amino)phenyl)-3-((4-(((2S,4R)-2-methyl-1-propionyl-1,2,3,4-tetrahydroquinolin-4-yl)amino)phenyl)sulfinyl)propanamide] | – | 0.59
13 | CCC(=O)N1c2ccccc2[C@H](Nc2ccc(NC(=O)[C@H](C)NC(=O)c3ccc(N[C@@H]4C[C@H](C)N(C(=O)CC)c5ccccc54)cc3)cc2)C[C@@H]1C (relative stereo) [Compound 2d, 4-{[(2S,4R)-2-Methyl-1-propionyl-1,2,3,4-tetrahydroquinolin-4-yl]amino}-N-{(S)-1-[(4-{[(2S*,4R*)-2-methyl-1-propionyl-1,2,3,4-tetrahydroquinolin-4-yl]amino}phenyl)amino]-1-oxopropan-2-yl}benzamide] | – | 26.6
14 | CCC(=O)N1c2ccccc2[C@H](Nc2ccc(NS(=O)(=O)c3cccc(NC(=O)c4ccc(N[C@@H]5C[C@H](C)N(C(=O)CC)c6ccccc65)cc4)c3)cc2)C[C@@H]1C (relative stereo) [Compound 4c, 4-{[(2S,4R)-2-Methyl-1-propionyl-1,2,3,4-tetrahydroquinolin-4-yl]amino}-N-{3-[N-(4-{[(2S*,4R*)-2-methyl-1-propionyl-1,2,3,4-tetrahydroquinolin-4-yl]amino}phenyl)sulfamoyl]phenyl}benzamide] | – | 4.03
